This is an account of results in US6894061B2, “Substituted dihydrophenanthridinesulfonamides” (Wyeth, priority 2002, dated 2005).

For one data set, the system named is creatine kinase. Nature of the data set: Creatine kinase (CK) test procedure in Ad5-wt-ERα infected HAECT-1 cells. Particulars: Homo sapiens, HAECT1, Ad5-wt-ERα infected HAECT-1 cells; for Emax at 10 µM / Emax: read-out: Creatin Kinase Efficacy (%); for EC50: read-out: Creatin Kinase EC50. The format is cell-based, human. How it is done:
(§1) After four hours, cells were washed with EBM-BSA and incubated overnight in the same medium. Following overnight incubation, cells were washed with EBM-BSA and infected for 2 hours with 6 mL of a 1:10 dilution of Ad5-3x(NFκB).Luc virus (Adenovirus luciferase expression vector driven by 3 repeats of the MHC NFκb site 5′ to the thymidine kinase promoter) in EBM-BSA. After two hours, cells were washed and incubated at 34° C. for 1 hour. […] Control (no ER infection) cells were processed as above without Ad5-wt-hERα virus infection.
(§2) ERα infected HAECT-1 cells or control cells were thawed, diluted 42× in warm EBM-BSA, plated into 96-well plates at 0.1 mL/well and incubated for 4 hours at 34° C. Test compounds were added to the cells as 2× stocks in EBM-BSA containing 2 ng/mL IL-1β (R&D Systems) and the 96-well plates were returned to the incubator (34° C.). After 15-20 hours, 100 μL aliquots of media were removed from the cells and assayed for IL-6 content using a BioSource human IL-6 ELISA Kit. Cells were subsequently washed with 300 μL of Dulbecco's phosphate buffered saline and lysed in 50 μL of Cell Culture Lysis Reagent (Promega). Luciferase was determined on a Wallac Victor^2 Luminometer (Gaithersburg, Md.) using 10 μL of lysate and mixing with 100 μL of Promega Luciferase Assay reagent. Creatine kinase was determined from the rate of increase in A340 following addition of 100 μL of CK assay reagent (Sigma, cat. No 47-10) to the remainder of the cell lysate.
(§3) For IC50 and EC50 calculations, mean IL-6, luciferase or CK values versus log10 of the compound concentration were fitted to a four parameter logistic equation. The IC50/EC50 value, ‘Hill slope’, upper and lower limits of the curve were iteratively estimated.

The next data set relates to ER/NF-κB. Nature of the data set: ER/NF-κB luciferase reporter in Ad5-wt-ERα infected HAECT-1 cells. The conditions noted are these: Homo sapiens, HAECT1, IL-1β; for Emax: read-out: ER/NFκB Efficacy (%)*; for IC50: read-out: ER/NFκB IC50. In kind it is cell-based, human. How it is done:
as §1, §2, §3

The term melting point denotes the temperature of the solid-liquid transition. On to `Cc1cc(S(=O)(=O)N2c3ccccc3-c3ccc(F)cc3C2C)ccc1O` (stereo not shown) [Example 35, 4-[(8-Fluoro-6-methylphenanthridin-5(6H)-yl)sulfonyl]-2-methylphenol], for which the melting point worked out at 196 °C. In the data set with creatine kinase, the Emax at 10 µM was less than 35%. For the same compound, in the data set with ER/NF-κB, the Emax is 94% and the IC50 worked out at 707 nM.
Taken in the same sequence, the figures for `CCC1c2c(C)cccc2-c2ccccc2N1S(=O)(=O)c1ccc(O)cc1` (stereo not shown) [Example 42, 4-[(6-ethyl-7-methylphenanthridin-5(6H)-yl)sulfonyl]phenol] were 167 to 169 °C, less than 35%, 99% and 83 nM.
With `CCC1c2cc(F)ccc2-c2cc(-c3ccccc3)ccc2N1S(=O)(=O)c1ccc(O)cc1` (stereo not shown) [Example 47, 4-[(6-Ethyl-8-fluoro-2-phenylphenanthridin-5(6H)-yl)sulfonyl]phenol], the melting point is 207 °C. In the data set on creatine kinase, the Emax at 10 µM was less than 35%. Besides, in the data set with ER/NF-κB, the Emax was 89% and the IC50 was determined as 60 nM.
The compound `CCC1c2ccc(C)cc2-c2ccccc2N1S(=O)(=O)c1ccc(O)cc1` (stereo not shown) [Example 43, 4-[(6-Ethyl-9-methylphenanthridin-5(6H)-yl)sulfonyl]phenol] registered a melting point of 167 to 170 °C. In addition, the Emax at 10 µM in the data set with creatine kinase is less than 35%. Further, the IC50 in the data set with ER/NF-κB is greater than 10000 nM.
Turning to `O=S(=O)(c1ccc(O)cc1)N1c2ccc(Br)cc2-c2ccccc2C1c1ccccc1` (stereo not shown) [Example 12, 4-[(2-Bromo-6-phenylphenanthridin-5(6H)-yl)sulfonyl]phenol], the melting point is 262 to 265 °C. Besides, the Emax at 10 µM in the data set with creatine kinase was less than 35%. Also, in the data set on ER/NF-κB, the Emax worked out at 93% and the IC50 is 682 nM.
The corresponding values for `CC(C)(C)C1c2ccccc2-c2cc(Br)ccc2N1S(=O)(=O)c1ccc(O)cc1` (stereo not shown) [Example 17, 4-[(2-Bromo-6-tert-butylphenanthridin-5(6H)-yl)sulfonyl]phenol] are 245 to 247 °C, less than 35%, 76% and 58 nM.
The compound `CC1c2ccccc2-c2ccccc2N1S(=O)(=O)c1ccc(O)c(C(F)(F)F)c1` (stereo not shown) [Example 58, 4-[(6-Methylphenanthridin-5(6H)-yl)sulfonyl]-2-(trifluoromethyl)phenol] showed a melting point of 213 to 215 °C. Further, the Emax at 10 µM in the data set with creatine kinase was less than 35%. For the same compound, the IC50 with ER/NF-κB was greater than 10000 nM.
Consider `CC1c2ccccc2-c2cc(Br)ccc2N1S(=O)(=O)c1ccc(O)c(F)c1` (stereo not shown) [Example 57, 4-[(2-Bromo-6-methylphenanthridin-5(6H)-yl)sulfonyl]-2-fluorophenol], for which the melting point lay in the range of 203 to 206 °C. Moreover, the Emax at 10 µM in the data set on creatine kinase was less than 35%. For the same compound, the IC50 with ER/NF-κB is greater than 10000 nM.
As a reminder, the EC50 is the concentration at which the effect is half-maximal. In the case of `CC1c2ccccc2-c2ccccc2N1S(=O)(=O)c1ccc(O)cc1` (stereo not shown) [Example 1, 4-[(6-Methylphenanthridin-5(6H)-yl)sulfonyl]phenol], the melting point lay within 196 to 198 °C. Further, in the data set with creatine kinase, the EC50 was found to be 1000 nM and the Emax worked out at 39%. Also, in the data set with ER/NF-κB, the Emax stood at 94% and the IC50 came out at 422 nM.
Regarding `CC1c2ccccc2-c2ccccc2N1S(=O)(=O)c1ccc(O)c(CO)c1` (stereo not shown) [Example 26, 2-(Hydroxymethyl)-4-[(6-methylphenanthridin-5(6H)-yl)sulfonyl]phenol], the melting point fell in the range of 182 to 184 °C. Moreover, the Emax at 10 µM with creatine kinase is less than 35%. For the same compound, in the data set with ER/NF-κB, the IC50 is greater than 10000 nM.
Compound `CC(C)(C)[C@H]1c2ccccc2-c2ccccc2N1S(=O)(=O)c1ccc(O)cc1` [Example 16, 4-{[(S)-6-tert-Butylphenanthridin-5(6H)-yl]sulfonyl}phenol] registered a melting point of 187 to 189 °C. Further, in the data set with creatine kinase, the EC50 was 3160 nM and the Emax was found to be 15%. Further, in the data set on ER/NF-κB, the Emax was 89% and the IC50 was found to be 2280 nM.
`CCCCC1c2ccccc2-c2cc(Br)ccc2N1S(=O)(=O)c1ccc(O)cc1` (stereo not shown) [Example 8, 4-[(2-Bromo-6-butylphenanthridin-5(6H)-yl)sulfonyl]phenol] returned a melting point of 178 to 180 °C. Also, the Emax at 10 µM in the data set with creatine kinase was less than 35%. Further, in the data set on ER/NF-κB, the Emax is 89% and the IC50 is 672 nM.
Regarding `CC1c2ccccc2-c2cc(Br)ccc2N1S(=O)(=O)c1ccc(O)cc1` (stereo not shown) [Example 4, 4-[(2-Bromo-6-methylphenanthridin-5(6H)-yl)sulfonyl]phenol], the melting point was in the range of 201 to 203 °C. Also, in the data set with creatine kinase, the 50% effective concentration (EC50) stood at 48 nM and the Emax stood at 23%. For the same compound, in the data set on ER/NF-κB, the Emax came out at 101% and the IC50 was 54 nM.
As to `CCC1c2cc(F)ccc2-c2ccccc2N1S(=O)(=O)c1ccc(O)cc1` (stereo not shown) [Example 40, 4-[(6-Ethyl-8-fluorophenanthridin-5(6H)-yl)sulfonyl]phenol], the melting point amounted to 151 °C. In addition, the Emax at 10 µM with creatine kinase was less than 35%. In the data set on ER/NF-κB, the Emax stood at 99% and the IC50 is 27 nM.
The corresponding values for `CC[C@@H](C)[C@H]1c2ccccc2-c2ccccc2N1S(=O)(=O)c1ccc(O)cc1` (relative stereo) [Example 22, 4-{[(S*)-6-[(R*)-1-methylpropyl]phenanthridin-5(6H)-yl]sulfonyl}phenol] are 115 to 118 °C, less than 35%, 96% and 163 nM.
As to `O=S(=O)(c1ccc(O)c(Br)c1)N1c2ccc(Br)cc2-c2ccccc2C1c1ccccc1` (stereo not shown) [Example 13, 2-Bromo-4-[(2-bromo-6-phenylphenanthridin-5(6H)-yl)sulfonyl]phenol], the melting point lay within 237 to 239 °C. The Emax at 10 µM in the data set on creatine kinase is less than 35%. For the same compound, the IC50 in the data set with ER/NF-κB was greater than 10000 nM.
Compound `CC1c2cc(F)ccc2-c2ccccc2N1S(=O)(=O)c1ccc(O)c(F)c1` (stereo not shown) [Example 49, 2-Fluoro-4-[(8-fluoro-6-methylphenanthridin-5(6H)-yl)sulfonyl]phenol] showed a melting point of 191 °C. The Emax at 10 µM in the data set on creatine kinase is less than 35%. In addition, in the data set on ER/NF-κB, the IC50 is greater than 10000 nM.
Compound `CCC1c2cc(F)ccc2-c2ccccc2N1S(=O)(=O)c1ccc(O)c(C)c1` (stereo not shown) [Example 41, 4-[(6-Ethyl-8-fluorophenanthridin-5(6H)-yl)sulfonyl]-2-methylphenol] yielded a melting point of 181 °C. Further, in the data set on creatine kinase, the EC50 came out at 429 nM and the Emax turned out to be 24%. In addition, in the data set on ER/NF-κB, the Emax came to 75% and the IC50 came to 815 nM.
In the case of `CC1c2ccccc2-c2ccccc2N1S(=O)(=O)c1ccc(O)c(C(=O)O)c1` (stereo not shown) [Example 24, 2-Hydroxy-5-[(6-methylphenanthridin-5(6H)-yl)sulfonyl]benzoic acid], the melting point was 225 to 230 °C.
In the case of `CCOC(=O)c1cc(S(=O)(=O)N2c3ccccc3-c3ccccc3C2C)ccc1OCC` (stereo not shown) [Example 25, Ethyl 2-ethoxy-5-[(6-methylphenanthridin-5(6H)-yl)sulfonyl]benzoate], the melting point was in the range of 113 to 115 °C.
Still for that read-out and setting: in the case of `CC1c2cc(Cl)ccc2-c2ccccc2N1S(=O)(=O)c1ccc(O)cc1` (stereo not shown) [Example 61, 4-[(8-Chloro-6-methylphenanthridin-5(6H)-yl)sulfonyl]phenol] it was 176 to 178 °C.
